Laboratory results from ChEMBL document CHEMBL4351023, “Novel N-benzylpiperidine carboxamide derivatives as potential cholinesterase inhibitors for the treatment of Alzheimer's disease” (Eur J Med Chem, 2019).

Columns and labels:
SH-SY5Y = experiment: cells; assay type: ADME, cell-based; conditions: Homo sapiens, 72 h
[1] = Solubility of compound in water at 10 mM; assay type: physicochemical; conditions: buffer, 10000 µM
[2] = Solubility of compound in <1 % DMSO; assay type: physicochemical
Cholinesterase = Cholinesterase (Equus caballus, UniProt P81908); experiment: Inhibition of BuChE in equine serum using Butyrylthiocholine iodide as substrate by Ellman's method; assay type: cell-free
Chain of Cholinesterase (P81908 whole entry): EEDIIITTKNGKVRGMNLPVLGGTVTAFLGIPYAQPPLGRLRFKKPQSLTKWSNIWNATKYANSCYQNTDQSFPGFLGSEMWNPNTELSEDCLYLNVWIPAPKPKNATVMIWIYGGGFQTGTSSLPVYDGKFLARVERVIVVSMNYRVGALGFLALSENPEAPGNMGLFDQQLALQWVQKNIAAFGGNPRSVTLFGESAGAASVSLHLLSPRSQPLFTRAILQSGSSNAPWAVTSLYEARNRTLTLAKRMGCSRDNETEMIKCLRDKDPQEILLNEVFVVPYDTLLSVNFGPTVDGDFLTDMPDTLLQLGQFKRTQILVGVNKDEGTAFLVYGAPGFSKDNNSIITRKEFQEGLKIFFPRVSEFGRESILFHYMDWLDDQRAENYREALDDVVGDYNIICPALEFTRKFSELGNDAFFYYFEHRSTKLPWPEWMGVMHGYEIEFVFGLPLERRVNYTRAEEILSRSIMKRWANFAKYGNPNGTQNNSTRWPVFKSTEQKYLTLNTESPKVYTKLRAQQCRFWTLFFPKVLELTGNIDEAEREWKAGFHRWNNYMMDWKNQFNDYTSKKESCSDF

Acetylcholinesterase = Acetylcholinesterase (Electrophorus electricus, UniProt O42275); experiment: Inhibition of Electrophorus electricus AChE using acetylthiocholine iodide as substrate by Ellman's method
Chain of Acetylcholinesterase (O42275 whole entry): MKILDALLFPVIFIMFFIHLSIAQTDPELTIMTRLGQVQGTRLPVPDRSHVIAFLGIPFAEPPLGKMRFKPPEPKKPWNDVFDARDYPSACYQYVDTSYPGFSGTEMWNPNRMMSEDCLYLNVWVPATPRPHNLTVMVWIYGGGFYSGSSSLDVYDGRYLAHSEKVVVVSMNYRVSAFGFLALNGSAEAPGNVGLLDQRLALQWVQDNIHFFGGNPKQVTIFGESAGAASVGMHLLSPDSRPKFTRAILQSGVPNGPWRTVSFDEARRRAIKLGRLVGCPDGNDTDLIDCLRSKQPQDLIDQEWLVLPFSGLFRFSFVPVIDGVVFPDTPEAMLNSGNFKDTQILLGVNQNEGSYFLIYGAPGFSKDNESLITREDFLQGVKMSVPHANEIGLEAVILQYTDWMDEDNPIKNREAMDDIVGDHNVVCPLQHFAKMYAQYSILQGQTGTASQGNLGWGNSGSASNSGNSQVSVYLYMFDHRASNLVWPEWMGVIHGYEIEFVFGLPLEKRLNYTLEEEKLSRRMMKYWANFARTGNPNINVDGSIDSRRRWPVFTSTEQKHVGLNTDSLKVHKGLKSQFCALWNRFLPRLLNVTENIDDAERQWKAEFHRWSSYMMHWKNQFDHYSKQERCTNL

Row | SMILES | IC50 (SH-SY5Y) [µM] | solubility [1] | solubility [2] | IC50 (Cholinesterase) [µM] | IC50 (Acetylcholinesterase) [µM]
1 | COc1cc2c(cc1OC)C(=O)C(CC1CCN(Cc3ccccc3)CC1)C2 (stereo not given) [DONEPEZIL] | 95.1 | – | – | – | –
2 | O=C(NCc1cccnc1)C1CCN(Cc2ccccc2)CC1 | > 100 | Insoluble | Soluble | > 100 | 58.9
3 | O=C(NCCc1c[nH]c2ccccc12)C1CCN(Cc2ccccc2)CC1 | 40.5 | Insoluble | Soluble | > 100 | 25.6
4 | COc1ccccc1CNC(=O)C1CCN(Cc2ccccc2)CC1 | 50.9 | Insoluble | Soluble | > 100 | 44.4
5 | Cc1c(NC(=O)C2CCN(Cc3ccccc3)CC2)c(=O)n(-c2ccccc2)n1C | > 100 | Insoluble | Soluble | > 100 | 5.94
6 | O=C(NCCc1c[nH]cn1)C1CCN(Cc2ccccc2)CC1 | > 100 | Insoluble | Soluble | > 100 | > 100
7 | O=C(NCCN1CCOCC1)C1CCN(Cc2ccccc2)CC1 | 73.4 | Insoluble | Soluble | > 100 | > 100
8 | O=C(NCc1ccccn1)C1CCN(Cc2ccccc2)CC1 | > 100 | Insoluble | Soluble | > 100 | 30.9
9 | COc1cc2c(cc1OC)-c1nc(NC(=O)C3CCN(Cc4ccccc4)CC3)sc1C2 | 31.3 | Insoluble | Soluble | > 100 | –
10 | O=C(NC1CCCc2ccccc21)C1CCN(Cc2ccccc2)CC1 (stereo not given) | 99.3 | Insoluble | Soluble | > 100 | > 100
11 | COc1cc(CCNC(=O)C2CCN(Cc3ccccc3)CC2)cc(OC)c1OC | > 100 | Insoluble | Soluble | > 100 | > 100
12 | O=C(NCc1ccco1)C1CCN(Cc2ccccc2)CC1 | > 100 | Insoluble | Soluble | > 100 | > 100
13 | O=C(NCc1ccncc1)C1CCN(Cc2ccccc2)CC1 | 3.37 | Insoluble | Soluble | > 100 | 58.2
14 | O=C(NCCN1CCCCC1)C1CCN(Cc2ccccc2)CC1 | > 100 | Insoluble | Soluble | > 100 | 82.1
15 | O=C(Nc1nccs1)C1CCN(Cc2ccccc2)CC1 | 76.6 | Insoluble | Soluble | > 100 | 51.1
16 | O=C(NCCNc1cccc2ccccc12)C1CCN(Cc2ccccc2)CC1 | 13.6 | Insoluble | Soluble | > 100 | 14
